Structures are written as SMILES.

The assay has as its target T1, purified human HDAC6 (Homo sapiens, UniProt Q9UBN7).
T1 construct: purchased BPS Bioscience 5006
T1 sequence (Q9UBN7 1-1215): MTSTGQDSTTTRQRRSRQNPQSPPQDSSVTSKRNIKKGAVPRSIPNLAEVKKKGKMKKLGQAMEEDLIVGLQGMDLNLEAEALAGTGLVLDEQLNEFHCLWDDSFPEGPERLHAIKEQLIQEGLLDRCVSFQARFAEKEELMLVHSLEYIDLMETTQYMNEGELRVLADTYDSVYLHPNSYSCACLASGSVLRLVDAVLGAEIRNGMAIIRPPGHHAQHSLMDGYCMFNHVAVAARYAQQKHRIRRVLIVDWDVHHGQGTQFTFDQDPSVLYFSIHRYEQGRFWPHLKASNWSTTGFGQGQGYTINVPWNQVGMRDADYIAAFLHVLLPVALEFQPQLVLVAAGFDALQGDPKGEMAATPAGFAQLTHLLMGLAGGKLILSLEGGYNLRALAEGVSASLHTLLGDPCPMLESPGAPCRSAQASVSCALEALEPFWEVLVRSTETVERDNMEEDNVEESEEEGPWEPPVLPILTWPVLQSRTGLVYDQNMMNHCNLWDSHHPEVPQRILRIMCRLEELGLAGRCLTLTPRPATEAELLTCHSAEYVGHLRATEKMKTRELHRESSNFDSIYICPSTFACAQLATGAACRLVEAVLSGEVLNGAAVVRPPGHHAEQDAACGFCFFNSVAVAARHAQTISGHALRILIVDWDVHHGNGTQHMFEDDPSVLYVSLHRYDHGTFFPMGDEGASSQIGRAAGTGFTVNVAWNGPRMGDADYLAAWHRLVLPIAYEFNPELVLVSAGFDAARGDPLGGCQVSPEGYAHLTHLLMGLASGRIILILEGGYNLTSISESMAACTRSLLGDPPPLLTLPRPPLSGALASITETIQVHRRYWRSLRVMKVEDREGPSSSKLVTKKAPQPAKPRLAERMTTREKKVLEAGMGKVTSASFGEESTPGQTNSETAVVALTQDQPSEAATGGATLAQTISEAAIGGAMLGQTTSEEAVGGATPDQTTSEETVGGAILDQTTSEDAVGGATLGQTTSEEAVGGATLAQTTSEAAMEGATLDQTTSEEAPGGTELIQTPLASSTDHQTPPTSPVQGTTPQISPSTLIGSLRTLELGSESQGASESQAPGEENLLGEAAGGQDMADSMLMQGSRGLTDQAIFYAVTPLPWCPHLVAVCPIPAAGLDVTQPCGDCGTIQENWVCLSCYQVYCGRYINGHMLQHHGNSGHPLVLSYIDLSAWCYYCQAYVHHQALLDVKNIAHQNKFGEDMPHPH
Kind of assay: HDAC6 Enzyme Assay. In kind it is biochemical. As to conditions: test compound at 1.235 μM; substrate Ac-Arg-Gly-Lys(Ac)-AMC, 1 hour at 30° C.; read-out: Percent Inhibition at 1.235 μM. How it is done:
To measure the inhibition of HDAC6 activity, purified human HDAC6 (BPS Bioscience; Cat. No. 5006) is incubated with substrate Ac-Arg-Gly-Lys(Ac)-AMC peptide (Bachem Biosciences; Cat. No. I-1925) for 1 hour at 30° C. in the presence of test compounds or vehicle DMSO control. The reaction is stopped with the HDAC inhibitor trichostatin A (Sigma; Cat. No. T8552) and the amount of Arg-Gly-Lys-AMC generated is quantitated by digestion with trypsin (Sigma; Cat. No. T1426) and subsequent measurement of the amount of AMC released using a fluorescent plate reader (Pherastar, BMG Technologies) set at Ex 340 nm and Em 460 nm. Concentration response curves are generated by calculating the fluorescence increase in test compound-treated samples relative to DMSO-treated controls, and percentage inhibition values at a single concentration or enzyme inhibition (IC50) values are determined from those curves. One skilled in the art will appreciate that the values generated either as percentage inhibition at a single concentration or IC50 values are subject to experimental variation.
Broadly, the inhibition is the drop in the measured response relative to a control, in per cent. Turning to `O=C(NO)c1ccc2c(n1)CCN(Cc1ccccc1)C2` [Compound I-38, 6-benzyl-N-hydroxy-5,6,7,8-tetrahydro-1,6-naphthyridine-2-carboxamide], the inhibition at 1.235 µM turned out to be 60.2%.

Consider `O=C(NO)c1ccc2c(n1)CCN(C(=O)Nc1ccccc1-c1ccccc1)C2` [Compound I-34, N^6-biphenyl-2-yl-N^2-hydroxy-7,8-dihydro-1,6-naphthyridine-2,6(5H)-dicarboxamide], for which the inhibition at 1.235 µM came to 48.2%.

Turning to `COc1ccc(C(=O)N2CCc3ncc(C(=O)NO)cc3C2)cc1` [Compound I-32, N-hydroxy-6-(4-methoxybenzoyl)-5,6,7,8-tetrahydro-1,6-naphthyridine-3-carboxamide], the inhibition at 1.235 µM was determined as 93%.

With `O=C(NO)c1cnc2c(c1)CN(C(=O)c1ccc(-c3ccccc3)cc1)CC2` [Compound I-53, 6-(biphenyl-4-ylcarbonyl)-N-hydroxy-5,6,7,8-tetrahydro-1,6-naphthyridine-3-carboxamide], the inhibition at 1.235 µM came to 96.9%.

With `O=C(NO)c1cnc2c(c1)CN(C(=O)c1sc3ccccc3c1Cl)CC2` [Compound I-5, 6-[(3-chloro-1-benzothien-2-yl)carbonyl]-N-hydroxy-5,6,7,8-tetrahydro-1,6-naphthyridine-3-carboxamide], the inhibition at 1.235 µM was 93.4%.

Regarding `CCC(C)NC(=O)N1CCc2nc(C(=O)NO)ccc2C1` (stereo not drawn) [Compound I-16, N^6-(sec-butyl)-N^2-hydroxy-7,8-dihydro-1,6-naphthyridine-2,6(5H)-dicarboxamide], the inhibition at 1.235 µM was found to be 27.3%.

Turning to `CC(C)(C)c1ccccc1NC(=O)N1CCc2nc(C(=O)NO)ccc2C1` [Compound I-40, N^6-(2-tert-butylphenyl)-N^2-hydroxy-7,8-dihydro-1,6-naphthyridine-2,6(5H)-dicarboxamide], the inhibition at 1.235 µM turned out to be 50.4%.

For `CCCCS(=O)(=O)N1CCc2nc(C(=O)NO)ccc2C1` [Compound I-61, 6-(butylsulfonyl)-N-hydroxy-5,6,7,8-tetrahydro-1,6-naphthyridine-2-carboxamide], the inhibition at 1.235 µM is -3.95%.

Regarding `O=C(NO)c1ccc2c(n1)CCN(C(=O)c1ccc(Cl)cc1)C2` [Compound I-33, 6-(4-chlorobenzoyl)-N-hydroxy-5,6,7,8-tetrahydro-1,6-naphthyridine-2-carboxamide], the inhibition at 1.235 µM was 68.8%.

For the compound `Cc1nc(-c2ccccn2)sc1C(=O)N1CCc2nc(C(=O)NO)ccc2C1` [Compound I-6, N-hydroxy-6-[(4-methyl-2-pyridin-2-yl-1,3-thiazol-5-yl)carbonyl]-5,6,7,8-tetrahydro-1,6-naphthyridine-2-carboxamide], the inhibition at 1.235 µM was 81.4%.

With `O=C(NO)c1cnc2c(c1)CCN(C(=O)C13CC4CC(CC(C4)C1)C3)C2` [Compound I-15, 7-[1-adamantylcarbonyl]-N-hydroxy-5,6,7,8-tetrahydro-1,7-naphthyridine-3-carboxamide], the inhibition at 1.235 µM is 95.6%.

With `O=C(NO)c1ccc2c(n1)CCN(C(=O)Nc1ccccc1)C2` [Compound I-51, N^2-hydroxy-N^6-phenyl-7,8-dihydro-1,6-naphthyridine-2,6(5H)-dicarboxamide], the inhibition at 1.235 µM is 63.4%.

Consider `CCc1cccc(CC)c1NC(=O)N1CCc2nc(C(=O)NO)ccc2C1` [Compound I-47, N^6-(2,6-diethylphenyl)-N^2-hydroxy-7,8-dihydro-1,6-naphthyridine-2,6(5H)-dicarboxamide], for which the inhibition at 1.235 µM is 34.3%.

For `Cc1nc(C(=O)N2CCc3ncc(C(=O)NO)cc3C2)cs1` [Compound I-1, N-hydroxy-6-[(2-methyl-1,3-thiazol-4-yl)carbonyl]-5,6,7,8-tetrahydro-1,6-naphthyridine-3-carboxamide], the inhibition at 1.235 µM was 87.8%.

For `COc1ccc(C(=O)N2CCc3nc(C(=O)NO)ccc3C2)cc1` [Compound I-35, N-hydroxy-6-(4-methoxybenzoyl)-5,6,7,8-tetrahydro-1,6-naphthyridine-2-carboxamide], the inhibition at 1.235 µM was 67%.

Source of the values: patent US8952163B2, “Substituted hydroxamic acids and uses thereof” (Millennium Pharmaceuticals, Inc., priority 2010, dated 2015).
